Assay results published in patent US10233177B2, “TRPV1 vanilloid receptor antagonists with a bicyclic portion” (Serentrix LLC, priority 2010, dated 2019).
Where two headings read alike, the source gives them in different places.

How the values were obtained:
TRPV1 = TRPV1 (Rattus norvegicus (Rat), UniProt O35433); assay: Ca2+ fluorescence measurements in cultured rat dorsal root ganglia neurons (capsaicin-induced calcium uptake); format: cell-based; conditions: rat DRG neurons; for inhibition at 0.3 µM: DRG neuron
Chain of TRPV1 (O35433 whole entry): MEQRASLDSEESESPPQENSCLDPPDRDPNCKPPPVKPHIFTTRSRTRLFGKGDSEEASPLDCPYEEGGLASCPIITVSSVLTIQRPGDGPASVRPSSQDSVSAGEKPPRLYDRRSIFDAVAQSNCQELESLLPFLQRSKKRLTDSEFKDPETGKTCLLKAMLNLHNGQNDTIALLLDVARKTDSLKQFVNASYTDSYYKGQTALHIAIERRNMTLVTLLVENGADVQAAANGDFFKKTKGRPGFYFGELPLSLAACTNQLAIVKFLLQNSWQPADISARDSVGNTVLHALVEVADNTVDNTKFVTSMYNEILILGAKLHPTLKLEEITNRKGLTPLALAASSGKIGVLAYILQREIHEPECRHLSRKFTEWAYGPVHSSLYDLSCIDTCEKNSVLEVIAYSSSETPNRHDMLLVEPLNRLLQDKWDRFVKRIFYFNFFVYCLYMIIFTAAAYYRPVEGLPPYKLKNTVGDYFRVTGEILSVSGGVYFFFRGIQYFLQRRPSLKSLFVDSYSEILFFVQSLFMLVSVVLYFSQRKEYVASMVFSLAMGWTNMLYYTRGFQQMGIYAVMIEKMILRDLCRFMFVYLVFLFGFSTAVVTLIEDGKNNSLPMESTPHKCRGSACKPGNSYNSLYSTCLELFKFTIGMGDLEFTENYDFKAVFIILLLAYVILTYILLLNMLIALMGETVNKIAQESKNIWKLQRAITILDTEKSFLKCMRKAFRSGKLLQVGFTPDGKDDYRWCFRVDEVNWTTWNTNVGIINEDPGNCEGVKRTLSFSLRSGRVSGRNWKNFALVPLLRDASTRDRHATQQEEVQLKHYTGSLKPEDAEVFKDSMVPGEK

[1] = test system: CFA-induced thermal hyperalgesia; assay: CFA-induced thermal hyperalgesia in rats (Hargreaves' test); format: in vivo; conditions: rat, 30 μmol/kg oral; read-out: reversal of CFA-induced thermal hyperalgesia (maximal reversal activity / % of reversion)
Source text: CFA-Induced Thermal Hyperalgesia in Rats
This method was used for the determination of acute nociceptive thermal threshold and combines a chemical stimulus and heat for measuring pain sensitivity. Male SD rats (Charles River, Italy) weighing 100 to 250 gr. were used. Anti-hyperalgesic effects were investigated by using the Hargreaves' test. Complete Freund's Adjuvant (CFA; Sigma, USA) was used to induce thermal hyperalgesia. CFA contains killed Mycobacterium tuberculosis and is designed to provide continuous release of antigens necessary for stimulating a strong, persistent immune response. This effect causes the reduction of the hind paw withdrawal response latency induced by heat during the Hargreaves' test. Thermal stimulation was performed 30, 60, 120 and 180 (240 min only if needed) minutes after the oral administration of the antagonists. During the CFA-induced thermal hyperalgesia experiments two different solubilization protocols were used: when items presented an amino group, a pH=2 aqueous solution of HCl and 2.5% Tween80 was used; otherwise molecules were suspended in 0.5% Methocel and 2.5% Tween80. Compounds were orally administrated (30 μmol/kg/10 ml) to rats 24 hours after the CFA treatment. CFA was injected into the plantar surface of a rat's hind paw at a fixed dose of 50 μl by the use of a micro syringe.

[2] = test system: CFA-induced tactile allodynia; assay: CFA-induced tactile allodynia in rats (von Frey filaments); format: in vivo; conditions: rat, 30 μmol/kg oral
Method: CFA-Induced Tactile Allodynia in Rats
Male SD rats (Charles River, Italy) weighing 100 to 250 g were put into a clean plastic cage on an elevated glass plate for 30 min before the test. This lets the animals accommodate to their new environment before testing. Complete Freund's adjuvant (CFA, 50 μl) was injected into the plantar surface of the right hind paw. Tactile stimulation was performed with von Frey filaments (from 0.07 to 26 g). All antagonists were orally administered 22 hours after to the CFA administration. Von Frey filaments were applied 30, 60, 120, 180, 240, 300 and 360 min after compound administrations. Median 50% (EG50) threshold of von Frey filaments was calculated by using the up-down method as previously described. All tested compounds were suspended in 0.5% Methocel and 2.5% Tween80 and orally administrated (30 μmol/kg/10 ml) to rats by gavage 24 hours after the CFA treatment. CFA was injected into the plantar surface of a rat's hind paw at a fixed dose of 50 μl by the use of a micro syringe.

[3] = test system: CCI-induced mechanical hyperalgesia; assay: CCI-induced mechanical hyperalgesia (Randall-Selitto paw pressure); format: in vivo; conditions: rat CCI, 30 μmol/kg oral
Method: CCI-Induced Mechanical Hyperalgesia
Male SD rats (Charles River, Italy) weighing 250 g were anaesthetized with sodium pentobarbital (60 mg/kg, intraperitoneal (i.p.), 0.1 ml/10 g) and, under a dissecting microscope, the right common sciatic nerve was exposed at the level of the mid thigh and, proximal to the trifurcation of the nerve; four ligatures (4/0 chromic silk, Ethicon) were loosely tied around it, at about 0.5 mm spacing, until they elicited a brief twitch in the respective hind, taking care to preserve epineural circulation. Sham-operated animals (sciatic exposure without ligation) were used as controls. 14 days after the surgery, mechanical hyperalgesia was assessed using an analgesimeter (Ugo Basile, Italy, Randall-Selitto analgesic apparatus). This device generated a mechanical force on the affected paw and the nociceptive threshold was defined as the force (in g) at which the rat withdraws the paw (with a cut-off of 450 g). Two baseline measurement values were obtained 75 and 45 min before the actual test. After the second baseline measurement, animals were randomly allocated to the different treatment groups. Paw pressure test was performed 0, 75, 120, 165, 210 and 300 min after the oral administration of the compounds. All tested compounds were orally administrated (30 μmol/kg/10 ml) to rats by gavage.

[4] = Rectal temperature measurements in rats; format: in vivo; conditions: rat, 10 μmol/Kg intraperitoneal
Method: Rectal Temperature Measurements in Rats
Body temperature was measured by a digital thermometer inserted at a depth of approximately 3 cm into the rectum of each animal (male SD rats, Charles River, Italy, 100 to 250 g). A pre-dose value of body temperature was measured prior to the administration of the test substance or vehicles. Animals were distributed among groups by the manual method to achieve the almost same mean values of body temperature of the groups based on the pre-dose value. All compounds were dissolved in 6% DMSO/6% Tween80 and then intraperitoneally (10 μmol/Kg/5 ml) administrated to rats.

[5] = 300 nM, read-out: abolition of capsaicin response at 300 nM
[6] = Table 1, formula IA-C, 300 nM against calcium uptake induced by 30 nM capsaicin, read-out: % inhibition at 300 nM
[7] = capsaicin-induced calcium uptake, read-out: inhibition of the calcium uptake
[8] = Table 1, against capsaicin-evoked [Ca2+]i mobilization, read-out: IC50
[9] = read-out: IC50 against capsaicin-evoked [Ca2+]i mobilization

Row | inhibition at 0.3 µM (TRPV1; [5]) [%] | inhibition at 0.3 µM (TRPV1; [6]) [%] | inhibition at 0.3 µM (TRPV1; [7]) [%] | IC50 (TRPV1; [8]) [nM] | IC50 (TRPV1; [9]) [nM] | effect on rectal body temperature [4] | Structure (SMILES) | inhibition in vivo at 30 µmol/kg [1] [%] | duration of effect on CFA-induced tactile allodynia, post-treatment [2] | reversal of CFA-induced tactile allodynia [2] [%] | anti-hyperalgesic activity (in words) [3] | reversal of hyperalgesia within the first 2 hours [3]
1 | ~100 | 100 | > 80 | 1 | 1 | – | O=C(NCc1ccc(C(F)(F)F)cc1N1CCCC1)Nc1cccc2[nH]c(=O)[nH]c12 [Example 5, 1-(4-(trifluoromethyl)-2-(pyrrolidin-1-yl)benzyl)-3-(2,3-dihydro-2-oxo-1H-benzo[d]imidazol-4-yl)urea] | 53 | up to 240 min | 60 | relevant and long lasting anti-hyperalgesic activity | at least 80%
2 | ~100 | 100 | > 80 | 0.13 | 0.13 | – | O=C1COc2c(cccc2NC(=O)NCc2ccc(C(F)(F)F)cc2N2CCCCC2)N1 [Example 48, 1-(4-(trifluoromethyl)-2-(piperidin-1-yl)benzyl)-3-(3,4-dihydro-3-oxo-2H-benzo[b][1,4]oxazin-8-yl)urea] | 45 | – | – | – | –
3 | ~100 | 100 | > 80 | 0.1 | 1.8 | – | O=C1COc2c(cccc2NC(=O)NCc2ccc(Cl)cc2N2CCCC2)N1 [Example 51, 1-(4-chloro-2-(pyrrolidin-1-yl)benzyl)-3-(3,4-dihydro-3-oxo-2H-benzo[b][1,4]oxazin-8-yl)urea] | 30 | shorter duration | 61 | – | –
4 | – | 82 | > 80 | 108 | – | – | O=C(NCc1ccc(C(F)(F)F)o1)Nc1cccc2[nH]c(=O)[nH]c12 [Example 23, 1-(5-(trifluoromethyl-furan-2-yl)-methyl)-3-(2,3-dihydro-2-oxo-1H-benzo[d]imidazol-4-yl)urea] | 46 | – | – | – | –
5 | ~100 | 100 | > 80 | 0.7 | 0.7 | – | O=C1COc2c(cccc2NC(=O)NCc2ccc(C(F)(F)F)cc2N2CCCC2)N1 [Example 47, 1-(4-(trifluoromethyl)-2-(pyrrolidin-1-yl)benzyl)-3-(3,4-dihydro-3-oxo-2H-benzo[b][1,4]oxazin-8-yl)urea] | 46 | – | – | – | –
6 | ~100 | 96 | > 80 | 1.8 | 1.8 | – | O=C(NCc1ccc(Cl)cc1N1CCCCC1)Nc1cccc2[nH]c(=O)[nH]c12 [Example 13, 1-(4-chloro-2-(piperidin-1-yl)benzyl)-3-(2,3-dihydro-2-oxo-1H-benzo[d]imidazol-4-yl)urea] | 60 | – | – | relevant and long lasting anti-hyperalgesic activity | at least 80%
7 | ~100 | 94 | > 80 | 3 | 3 | +0.8 °C | CN(C)c1cc(C(F)(F)F)ccc1CNC(=O)Nc1cccc2c1OCC(=O)N2 [Example 46, 1-(2-(dimethylamino)-4-(trifluoromethyl)benzyl)-3-(3,4-dihydro-3-oxo-2H-benzo[b][1,4]oxazin-8-yl)urea] | 50 | – | – | relevant and long lasting anti-hyperalgesic activity | at least 80%
8 | ~100 | 100 | > 80 | 1.9 | 1.9 | −1.5 °C | O=C(NCc1ccc(C(F)(F)F)cc1N1CCCCC1)Nc1cccc2oc(=O)[nH]c12 [Example 31, 1-(4-(trifluoromethyl)-2-(piperidin-1-yl)benzyl)-3-(2,3-dihydro-2-oxobenzo[d]oxazol-4-yl)urea] | 47 | – | – | relevant and long lasting anti-hyperalgesic activity | at least 80%
9 | – | 88 | > 80 | 6 | 6 | – | O=C(NCc1ccc(Cl)cc1N1CCCC1)Nc1cccc2[nH]c(=O)[nH]c12 [Example 12, 1-(4-chloro-2-(pyrrolidin-1-yl)benzyl)-3-(2,3-dihydro-2-oxo-1H-benzo[d]imidazol-4-yl)urea] | 65 | up to 300 min | 62 | – | –
10 | – | 68 | – | – | – | – | O=C1COc2c(cccc2NC(=O)NCc2ccc(Cl)cc2)N1 [Example 49, 1-(4-chlorobenzyl)-3-(3,4-dihydro-3-oxo-2H-benzo[b][1,4]oxazin-8-yl)urea] | 52 | – | 72 | relevant and long lasting anti-hyperalgesic activity | at least 80%
